Series [1] is described as follows: UV absorbance and fluorescence of ribonucleoside analogues in DMSO (molar extinction coefficient, quantum yield). The class given is physicochemical. The note with it: for Quantum yield: relative to quinine sulphate and anthracene standards. An excerpt:
UV absorbance and fluorescence excitation and emission data were used to determine the molar extinction coefficient and fluorescence quantum yield of a several adenosine and guanosine ribonucleoside analogues in DMSO (see the Table below). The data acquired support the concept that the fluorescence properties of these analogues can be tuned by altering the electron-donating or electron-withdrawing R-group on the terminal phenylalkyne. Fourteen electron-donating or electron-withdrawing R-groups were coupled to purine bases at the 8-position. […] This makes the analogues extremely useful for the quantification of analogue-containing nucleic acid products in a DNA or RNA background. […] The position (ortho, meta or para) of the R-group on the phenyl ring can also be used to tune the fluorescent properties of the analogues. The ring position of the R-group has a smaller effect on the fluorescent properties of the analogues. Greater changes in the excitation/emission wavelength, molar extinction coefficient and quantum yield can be induced by changing the type of R-group (electron-donating vs. electron-withdrawing) as compared to the position of a R-group on the phenyl ring (ortho, meta or para). The quantum yields of the unphosphorylated analogues were measured relative to quinine sulphate and anthracene standards. […] This provides additional support for the idea that the purine bases can both push and pull electrons in π-conjugated systems.

Series [2] can be described thus: Optical properties: UV-visible spectra, fluorescence excitation and emission. The class given is physicochemical. The note with it: for Stokes shift: (1/λex − 1 λem); for λem: fluorescence emission wavelength; for λex: fluorescence excitation wavelength. An excerpt: The optical properties of several novel chromophores were investigated. UV-visible spectra reveal an intense absorption in the UV region for all the compounds evaluated.

The melting point is the temperature of the solid-liquid transition. Consider `Cc1ccc(C#Cc2nc3c(N)ncnc3n2[C@@H]2O[C@H](CO)[C@@H](O)[C@H]2O)cc1` [Compound 6b, 8-(4′-Methylphenylethynyl)adenosine], for which the melting point was 196 to 198 °C (dec.). Also, in series [1], the Molar absorption coefficient turned out to be 18772 M⁻¹ cm⁻¹, the “Wavelength at fluorescence emission maximum” value was 393 nm, the “Wavelength at maximum in UV absorption” value was determined as 323 nm and the Quantum yield is recorded as 54%. Further, in series [2], the Stokes shift stood at 3126 cm⁻¹, the λem was 393 nm and the λex came out at 350 nm.
As for `COc1ccccc1C#Cc1nc2c(N)ncnc2n1[C@@H]1O[C@H](CO)[C@@H](O)[C@H]1O` [Adenosine —OCH3 ortho], in series [1], the “Wavelength at fluorescence emission maximum” value was found to be 429 nm, the “Wavelength at maximum in UV absorption” value was found to be 333 nm and the Quantum yield is 21%.
Turning to `Nc1ncnc2c1nc(C#Cc1ccccc1)n2[C@@H]1O[C@H](CO)[C@@H](O)[C@H]1O` [Compound 6a, 8-(Phenylethynyl)adenosine], the melting point is 168 to 170 °C (dec.). Moreover, in series [1], the “Wavelength at fluorescence emission maximum” value came to 398 nm, the “Wavelength at maximum in UV absorption” value turned out to be 322 nm and the Quantum yield was found to be 49%. Further, in series [2], the Stokes shift amounted to 3383 cm⁻¹, the λem was 397 nm and the λex is listed as 350 nm.
Regarding `CC(=O)c1ccc(C#Cc2nc3c(N)ncnc3n2[C@@H]2O[C@H](CO)[C@@H](O)[C@H]2O)cc1` [Compound 6f, 8-(4′-Acetophenonephenylethynyl)adenosine], in series [1], the Molar absorption coefficient was determined as 19639 M⁻¹ cm⁻¹, the “Wavelength at fluorescence emission maximum” value was found to be 493 nm, the “Wavelength at maximum in UV absorption” value came to 343 nm and the Quantum yield was found to be 4.9%. In addition, in series [2], the Stokes shift is 6454 cm⁻¹, the λem is given as 493 nm and the λex amounted to 374 nm.
With `COc1cccc(C#Cc2nc3c(=O)[nH]c(N)nc3n2[C@@H]2O[C@H](CO)[C@@H](O)[C@H]2O)c1` [Guanosine —OCH3 meta], in series [1], the Molar absorption coefficient stood at 20261 M⁻¹ cm⁻¹, the “Wavelength at fluorescence emission maximum” value stood at 420 nm, the “Wavelength at maximum in UV absorption” value was determined as 334 nm and the Quantum yield was found to be 3.6%.
As to `CCN(CC)c1ccc(C#Cc2nc3c(N)ncnc3n2[C@@H]2O[C@H](CO)[C@@H](O)[C@H]2O)cc1` [Compound 6e, 8-(4-N,N-Diethylaminephenylethynyl)adenosine], in series [1], the “Wavelength at fluorescence emission maximum” value came out at 441 nm, the “Wavelength at maximum in UV absorption” value came out at 365 nm and the Quantum yield came out at 8.4%. In addition, in series [2], the Stokes shift is 4747 cm⁻¹, the λem amounted to 506 nm and the λex is given as 408 nm. Besides, the “Absorption maxima shift relative to compound 7a (parent)” value in series [2] (compared with the guanosine series) is “more significant differences”.
For `CSc1ccc(C#Cc2nc3c(=O)[nH]c(N)nc3n2[C@@H]2O[C@H](CO)[C@@H](O)[C@H]2O)cc1` [Compound 5d, 8-(4-Methylsulfanylphenylethynyl)guanosine], the melting point was 214 to 216 °C (dec.). Further, in series [1], the Molar absorption coefficient came to 19832 M⁻¹ cm⁻¹, the “Wavelength at fluorescence emission maximum” value was 425 nm, the “Wavelength at maximum in UV absorption” value is given as 343 nm and the Quantum yield is reported as 4.5%. In series [2], the Stokes shift turned out to be 3264 cm⁻¹, the λem was found to be 426 nm and the λex is on record as 374 nm.
As for `Nc1ncnc2c1nc(C#Cc1cccc(C(F)(F)F)c1)n2[C@@H]1O[C@H](CO)[C@@H](O)[C@H]1O` [Adenosine —CF3 meta], in series [1], the Molar absorption coefficient stood at 19547 M⁻¹ cm⁻¹, the “Wavelength at fluorescence emission maximum” value is reported as 421 nm, the “Wavelength at maximum in UV absorption” value is 326 nm and the Quantum yield turned out to be 21%.
For “8-(1′-Ethynylferrocene)guanosine [Compound 5i]”, in series [2], the Stokes shift came out at 3537 cm⁻¹, the λem amounted to 439 nm and the λex turned out to be 380 nm.
As to `Nc1nc2c(nc(C#Cc3ccc(F)cc3)n2[C@@H]2O[C@H](CO)[C@@H](O)[C@H]2O)c(=O)[nH]1` [Guanosine —F para], in series [1], the Molar absorption coefficient stood at 11304 M⁻¹ cm⁻¹, the “Wavelength at fluorescence emission maximum” value is on record as 416 nm, the “Wavelength at maximum in UV absorption” value turned out to be 333 nm and the Quantum yield was 2.4%.
Consider `Nc1ncnc2c1nc(C#Cc1ccc(Cl)cc1)n2[C@@H]1O[C@H](CO)[C@@H](O)[C@H]1O` [Adenosine —Cl para], for which, in series [1], the Molar absorption coefficient is 23927 M⁻¹ cm⁻¹, the “Wavelength at fluorescence emission maximum” value is 410 nm, the “Wavelength at maximum in UV absorption” value worked out at 326 nm and the Quantum yield turned out to be 46%.
Regarding `CCN(CC)c1ccc(C#Cc2nc3c(=O)[nH]c(N)nc3n2[C@@H]2O[C@H](CO)[C@@H](O)[C@H]2O)cc1` [Compound 5e, 8-(4-N,N-diethylaminephenylethynyl)guanosine], in series [1], the “Wavelength at fluorescence emission maximum” value is on record as 409 nm, the “Wavelength at maximum in UV absorption” value was 356 nm and the Quantum yield was determined as 2.1%. Also, in series [2], the “UV-visible spectrum shift relative to compound 5a (parent)” value is given as “red-shifted”, the Stokes shift was 5205 cm⁻¹, the λem came out at 502 nm and the λex was determined as 398 nm. Further, the “HOMO-LUMO gap relative to compound 5a” value in series [2] (inferred from UV-visible spectrum) is on record as “higher HOMO-LUMO gap”.
Turning to `Nc1nc2c(nc(C#Cc3cccc4ccccc34)n2[C@@H]2O[C@H](CO)[C@@H](O)[C@H]2O)c(=O)[nH]1` [Compound 5h, 8-(Napthylethynyl)guanosine], in series [1], the Molar absorption coefficient is 15141 M⁻¹ cm⁻¹, the “Wavelength at fluorescence emission maximum” value is on record as 467 nm, the “Wavelength at maximum in UV absorption” value is listed as 357 nm and the Quantum yield was 5.4%. In series [2], the Stokes shift worked out at 4604 cm⁻¹, the λem is given as 465 nm and the λex amounted to 383 nm.
On to `COc1cccc(C#Cc2nc3c(N)ncnc3n2[C@@H]2O[C@H](CO)[C@@H](O)[C@H]2O)c1` [Adenosine —OCH3 meta], for which, in series [1], the Molar absorption coefficient was found to be 19589 M⁻¹ cm⁻¹, the “Wavelength at fluorescence emission maximum” value was found to be 400 nm, the “Wavelength at maximum in UV absorption” value turned out to be 324 nm and the Quantum yield turned out to be 52%.
In the case of `Nc1ncnc2c1nc(C#Cc1cccc3ccccc13)n2[C@@H]1O[C@H](CO)[C@@H](O)[C@H]1O` [Compound 6h, 8-(Napthylethynyl)adenosine], in series [1], the Molar absorption coefficient is 22970 M⁻¹ cm⁻¹, the “Wavelength at fluorescence emission maximum” value is recorded as 430 nm, the “Wavelength at maximum in UV absorption” value is reported as 349 nm and the Quantum yield was determined as 49%. In series [2], the Stokes shift was found to be 3394 cm⁻¹, the λem was 431 nm and the λex stood at 376 nm.
Turning to `Nc1ncnc2c1nc(C#Cc1ccc(F)cc1)n2[C@@H]1O[C@H](CO)[C@@H](O)[C@H]1O` [Adenosine —F para], in series [1], the Molar absorption coefficient amounted to 5558 M⁻¹ cm⁻¹, the “Wavelength at fluorescence emission maximum” value is 396 nm, the “Wavelength at maximum in UV absorption” value was determined as 320 nm and the Quantum yield was found to be 40%.
As for `Nc1nc2c(nc(C#Cc3ccccc3C(F)(F)F)n2[C@@H]2O[C@H](CO)[C@@H](O)[C@H]2O)c(=O)[nH]1` [Guanosine —CF3 ortho], in series [1], the “Wavelength at fluorescence emission maximum” value was found to be 421 nm, the “Wavelength at maximum in UV absorption” value was found to be 347 nm and the Quantum yield was 1.1%.
Regarding `Nc1nc2c(nc(C#Cc3ccc(Cl)cc3)n2[C@@H]2O[C@H](CO)[C@@H](O)[C@H]2O)c(=O)[nH]1` [Guanosine —Cl para], in series [1], the Molar absorption coefficient came to 23317 M⁻¹ cm⁻¹, the “Wavelength at fluorescence emission maximum” value is on record as 431 nm, the “Wavelength at maximum in UV absorption” value came out at 338 nm and the Quantum yield worked out at 1.9%.
For `CC(=O)c1ccc(C#Cc2nc3c(=O)[nH]c(N)nc3n2[C@@H]2O[C@H](CO)[C@@H](O)[C@H]2O)cc1` [Compound 5f, 8-(4′-Acetophenonephenylethynyl)guanosine], in series [1], the Molar absorption coefficient worked out at 19589 M⁻¹ cm⁻¹, the “Wavelength at fluorescence emission maximum” value worked out at 509 nm, the “Wavelength at maximum in UV absorption” value came out at 364 nm and the Quantum yield worked out at 0.44%. Besides, in series [2], the Stokes shift was 6392 cm⁻¹, the λem was 532 nm and the λex was found to be 397 nm.
With “8-(1′-Ethynylferrocene)adenosine [Compound 6i]”, in series [2], the Stokes shift was 3986 cm⁻¹, the λem is listed as 434 nm and the λex is 370 nm.

Values taken from patent publication US20090299049A1, “Bicyclic Compounds and Their Use” (priority 2006, published 2009).
